Article PMC10140157, “Molecular determinants for differential activation of the bile acid receptor from the pathogen Vibrio parahaemolyticus” (The Journal of Biological Chemistry, 2023)
pKd: −log10 of the molar value.

Experiments:
[1] = target: T1, VtrA–VtrC periplasmic domain complex (heterodimer) (Vibrio parahaemolyticus, UniProt Q87GI3+Q87GI4); assay: isothermal titration calorimetry; type: binding
T1 construct: gene VPA1333; periplasmic domains: VtrC residues 31-161 with N-terminal His6 tag, coexpressed with VtrA residues 161-253 (pACYC-Duet-VtrC/VtrA, E. coli BL21(DE3)); heterodimer, bile acid lies in the beta-barrel, contacts printed are VtrC residues

[2] = target: T2, VtrA–VtrC periplasmic domain complex (heterodimer) (Vibrio parahaemolyticus, UniProt Q87GI3+Q87GI4, Q87GI3:S123A); assay: biochemical
T2 construct: gene VPA1333
Source text: (§1) isothermal titration calorimetry on VtrA–VtrC periplasmic domain complex (heterodimer)

[3] = target: T3, VtrA–VtrC periplasmic domain complex (heterodimer) (Vibrio parahaemolyticus, UniProt Q87GI3+Q87GI4, Q87GI3:Y81A); assay: biochemical
T3 construct: gene VPA1333
Source text: as §1

[4] = target: T4, VtrA–VtrC periplasmic domain complex (heterodimer) (Vibrio parahaemolyticus, UniProt Q87GI3+Q87GI4, Q87GI3:H50A); assay: biochemical
T4 construct: gene VPA1333
Source text: as §1

[5] = target: T5, VtrA–VtrC periplasmic domain complex (heterodimer) (Vibrio parahaemolyticus, UniProt Q87GI3+Q87GI4, Q87GI3:Y151F); assay: biochemical
T5 construct: gene VPA1333
Source text: as §1

[6] = target: T6, VtrA–VtrC periplasmic domain complex (heterodimer) (Vibrio parahaemolyticus, UniProt Q87GI3+Q87GI4, Q87GI3:Y151A); assay: biochemical
T6 construct: gene VPA1333
Source text: as §1

[7] = target: T1, VtrA–VtrC periplasmic domain complex (heterodimer); assay: isothermal titration calorimetry; crystal structure of the complex also solved ([…] Å); type: binding

Compound | pKd [1] | pKd [2] | pKd [3] | pKd [4] | pKd [5] | pKd [6] | pKd [7]
C[C@H](CCC(=O)O)[C@H]1CC[C@H]2[C@@H]3[C@H](O)C[C@@H]4C[C@H](O)CC[C@]4(C)[C@H]3C[C@H](O)[C@]12C [CA, cholate] | 6.42 |  |  |  |  |  | 
C[C@H](CCC(=O)O)[C@H]1CC[C@H]2[C@@H]3[C@H](O)C[C@@H]4C[C@H](O)CC[C@]4(C)[C@H]3CC[C@]12C [CDC, chenodeoxycholate] |  | 6.69 | 6.14 | 6.04 | 5.93 | 5.64 | 6.51
C[C@H](CCC(=O)O)[C@H]1CC[C@H]2[C@@H]3CC[C@@H]4C[C@H](O)CC[C@]4(C)[C@H]3C[C@H](O)[C@]12C [DC, deoxycholate] | 6.63 |  |  |  |  |  | 
C[C@H](CCC(=O)NCC(=O)O)[C@H]1CC[C@H]2[C@@H]3[C@H](O)C[C@@H]4C[C@H](O)CC[C@]4(C)[C@H]3CC[C@]12C [GCDC, glycochenodeoxycholate] | 6.67 |  |  |  |  |  | 
C[C@H](CCC(=O)NCCS(=O)(=O)O)[C@H]1CC[C@H]2[C@@H]3CC[C@@H]4C[C@H](O)CC[C@]4(C)[C@H]3C[C@H](O)[C@]12C [TDC, taurodeoxycholate] | 6.89 | 7.04 | 5.92 | 6.52 | 6.06 | 5.60 | 
